Source: patent US12030904B2 (priority 2020, dated 2024)
pEC50: −log10 of the molar value. Where two headings read alike, the source gives them in different places.

Columns and labels:
SARS-CoV-2 = assay: microbe, parasite or virus in culture; type: cell-based; conditions: Severe acute respiratory syndrome coronavirus 2, read-out: SARS EC50
[1] = test system: Recombinant Respiratory Syncytial virus strain A2 containing the firefly luciferase reporter (RSV-Fluc); assay: microbe, parasite or virus in culture; type: cell-based; conditions: human respiratory syncytial virus, NHBE
MT4 cytotoxicity (CC50) = conditions: human, MT4 cells, MT4 CC50, Table 2a
[2] = 72 h, read-out: RSV-Fluc EC50 (NHBE), NHBE cells, three days, Table 2

Structure (SMILES)	pEC50 (SARS-CoV-2)	pEC50 ([1]; read-out: RSV EC50, Table 2a)	CC50 (MT4 cytotoxicity (CC50)) [nM]	pEC50 [1, 2]
CCCCCCCCCCCCCCCCCOC[C@H](COP(=O)(O)OC[C@H]1O[C@@](C#N)(c2ccc3c(N)ncnn23)[C@H](O)[C@@H]1O)OCc1cccc(C#N)c1 [Example 34, ((2R,3S,4R,5R)-5-(4-aminopyrrolo[2,1-f][1,2,4]triazin-7-yl)-5-cyano-3,4-dihydroxytetrahydrofuran-2-yl)methyl ((R)-2-((3-cyanobenzyl)oxy)-3-(heptadecyloxy)propyl) hydrogen phosphate]	6.24	7.60	550	
CCCCCCCCCCCCCCCCCOC[C@H](COP(=O)(O)OC[C@H]1O[C@@](C#N)(c2ccc3c(N)ncnn23)[C@H](O)[C@@H]1O)OCc1cc(F)cc(C#N)c1 [Example 35, ((2R,3S,4R,5R)-5-(4-aminopyrrolo[2,1-f][1,2,4]triazin-7-yl)-5-cyano-3,4-dihydroxytetrahydrofuran-2-yl)methyl ((R)-2-((3-cyano-5-fluorobenzyl)oxy)-3-(heptadecyloxy)propyl) hydrogen phosphate]	6.95	7.40	425	
CCCCCCCCCCCCCCCCCOC[C@H](COP(=O)(O)OC[C@H]1O[C@@](C#N)(c2ccc3c(N)ncnn23)[C@H](O)[C@@H]1O)OCc1ccc(C#N)cc1 [Example 36, ((2R,3S,4R,5R)-5-(4-aminopyrrolo[2,1-f][1,2,4]triazin-7-yl)-5-cyano-3,4-dihydroxytetrahydrofuran-2-yl)methyl ((R)-2-((4-cyanobenzyl)oxy)-3-(heptadecyloxy)propyl) hydrogen phosphate]	6.39	7.77	530	
CCCCCCCCCCCCCCCCCOC[C@H](COP(=O)(O)OC[C@H]1O[C@@](C#N)(c2ccc3c(N)ncnn23)[C@H](O)[C@@H]1O)OCc1ccc(OC)cc1 [Example 37, ((2R,3S,4R,5R)-5-(4-aminopyrrolo[2,1-f][1,2,4]triazin-7-yl)-5-cyano-3,4-dihydroxytetrahydrofuran-2-yl)methyl ((R)-3-(heptadecyloxy)-2-((4-methoxybenzyl)oxy)propyl) hydrogen phosphate]	6.43	7.41	1580	
CCCCCCCCCCCCCCCCCCOC[C@H](COP(=O)(O)OC[C@H]1O[C@@](C#N)(c2ccc3c(N)ncnn23)[C@H](O)[C@@H]1O)OCc1cccc(C#N)c1 [Example 39, ((2R,3S,4R,5R)-5-(4-aminopyrrolo[2,1-f][1,2,4]triazin-7-yl)-5-cyano-3,4-dihydroxytetrahydrofuran-2-yl)methyl ((R)-2-((3-cyanobenzyl)oxy)-3-(octadecyloxy)propyl) hydrogen phosphate]	6.55	7.57	348	7.57
CCCCCCCCCCCCCCCCCCOC[C@H](COP(=O)(O)OC[C@H]1O[C@@](C#N)(c2ccc3c(N)ncnn23)[C@H](O)[C@@H]1O)OCc1ccc(C)cc1 [Example 40, ((2R,3S,4R,5R)-5-(4-aminopyrrolo[2,1-f][1,2,4]triazin-7-yl)-5-cyano-3,4-dihydroxytetrahydrofuran-2-yl)methyl ((R)-2-((4-methylbenzyl)oxy)-3-(octadecyloxy)propyl) hydrogen phosphate]	6.73	7.08	2240	7.08
CCCCCCCCCCCCCCCCCCOC[C@H](COP(=O)(O)OC[C@H]1O[C@@](C#N)(c2ccc3c(N)ncnn23)[C@H](O)[C@@H]1O)OCc1ccc(Cl)cc1 [Example 41, ((2R,3S,4R,5R)-5-(4-aminopyrrolo[2,1-f][1,2,4]triazin-7-yl)-5-cyano-3,4-dihydroxytetrahydrofuran-2-yl)methyl ((R)-2-((4-chlorobenzyl)oxy)-3-(octadecyloxy)propyl) hydrogen phosphate]	6.76	7.28	2410	7.28
CCCCCCCCCCCCCCCCCCOC[C@H](COP(=O)(O)OC[C@H]1O[C@@](C#N)(c2ccc3c(N)ncnn23)[C@H](O)[C@@H]1O)OCc1ccccc1F [Example 42, ((2R,3S,4R,5R)-5-(4-aminopyrrolo[2,1-f][1,2,4]triazin-7-yl)-5-cyano-3,4-dihydroxytetrahydrofuran-2-yl)methyl ((R)-2-((2-fluorobenzyl)oxy)-3-(octadecyloxy)propyl) hydrogen phosphate]	6.23	7.44	2220	7.46
CCCCCCCCCCCCCCCCCCOC[C@H](COP(=O)(O)OC[C@H]1O[C@@](C#N)(c2ccc3c(N)ncnn23)[C@H](O)[C@@H]1O)OCc1c(F)cccc1F [Example 43, ((2R,3S,4R,5R)-5-(4-aminopyrrolo[2,1-f][1,2,4]triazin-7-yl)-5-cyano-3,4-dihydroxytetrahydrofuran-2-yl)methyl ((R)-2-((2,6-difluorobenzyl)oxy)-3-(octadecyloxy)propyl) hydrogen phosphate]	6.86	7.17	1470	7.17
CCCCCCCCCCCCCCCCCCOC[C@H](COP(=O)(O)OC[C@H]1O[C@@](C#N)(c2ccc3c(N)ncnn23)[C@H](O)[C@@H]1O)OC [Example 44, ((2R,3S,4R,5R)-5-(4-aminopyrrolo[2,1-f][1,2,4]triazin-7-yl)-5-cyano-3,4-dihydroxytetrahydrofuran-2-yl)methyl ((R)-2-methoxy-3-(octadecyloxy)propyl) hydrogen phosphate]	6.04	7.28	4000	7.28
CCCCCCCCCCCCCCCCCCOC[C@H](COP(=O)(O)OC[C@H]1O[C@@](C#N)(c2ccc3c(N)ncnn23)[C@H](O)[C@@H]1O)OCc1cccc(F)c1 [Example 45, ((2R,3S,4R,5R)-5-(4-aminopyrrolo[2,1-f][1,2,4]triazin-7-yl)-5-cyano-3,4-dihydroxytetrahydrofuran-2-yl)methyl ((R)-2-((3-fluorobenzyl)oxy)-3-(octadecyloxy)propyl) hydrogen phosphate]	6.51	7.16	4420	7.16
CCCCCCCCCCCCCCCCCCOC[C@H](COP(=O)(O)OC[C@H]1O[C@@](C#N)(c2ccc3c(N)ncnn23)[C@H](O)[C@@H]1O)OCC(C)C [Example 46, ((2R,3S,4R,5R)-5-(4-aminopyrrolo[2,1-f][1,2,4]triazin-7-yl)-5-cyano-3,4-dihydroxytetrahydrofuran-2-yl)methyl ((R)-2-isobutoxy-3-(octadecyloxy)propyl) hydrogen phosphate]	5.61	5.96	50000	5.96
CCCCCCCCCCCCCCCCCCOC[C@H](COP(=O)(O)OC[C@H]1O[C@@](C#N)(c2ccc3c(N)ncnn23)[C@H](O)[C@@H]1O)OC(C)C [Example 47, ((2R,3S,4R,5R)-5-(4-aminopyrrolo[2,1-f][1,2,4]triazin-7-yl)-5-cyano-3,4-dihydroxytetrahydrofuran-2-yl)methyl ((R)-2-isopropoxy-3-(octadecyloxy)propyl) hydrogen phosphate]	5.97	6.53	7870	6.52
